For 25 compounds, IC50 results are on record in US10301317B2, “Inhibitors of ERK and methods of use” (Kura Oncology, Inc., priority 2013, dated 2019).

The subject of this test is phospho-p90 RSK (RSK1 Thr359/Ser363) in A375 (Braf V600E) cells. Kind of test: Phospho-p90 RSK ELISA using A375 (Braf V600E) cells. The format is cell-based. The settings on record: Homo sapiens, A-375, 2 hours compound treatment, read-out: Cellular Phospho-p90RSK IC50.

pIC50: −log10 of the molar value.

In general, pIC50 refers to the negative decadic logarithm of the IC50, by convention in mol/L. Consider `Cc1cc(-c2n[nH]c3cc4c(cc23)CN([C@H]2CN(C(C)C)C[C@@H]2c2ccccc2)C(=O)N4)ccn1` [Example 296], for which the pIC50 is under 6.00. The figure for `Cn1cc(-c2n[nH]c3cc4c(cc23)CN([C@@H]2CCCN(Cc3cccs3)C2)C(=O)N4)cn1` [Example 298] is at least 6.60.

Turning to `Cc1cc(-c2n[nH]c3cc4c(cc23)CN([C@H]2CCN(CC(F)(F)F)C2)C(=O)N4)ccn1` [Example 299], the negative-log IC50 (pIC50) is at least 6.60. The figure for `Cc1cc(-c2n[nH]c3cc4c(cc23)CN([C@H]2CN(CC(F)(F)F)C[C@@H]2c2ccccc2)C(=O)N4)ccn1` [Example 303] is under 6.00; for `Cc1cc(-c2n[nH]c3cc4c(cc23)CN([C@H]2CN(C)C[C@@H]2c2ccccc2)C(=O)N4)cc(C)n1` [Example 307] it is 6.00 to 6.60.

Regarding `Cc1cc(-c2n[nH]c3cc4c(cc23)CN([C@H]2CCCN(CC(F)(F)F)C2)C(=O)N4)ccn1` [Example 309], the negative logarithm of the IC50 (pIC50) is 6.00 to 6.60. For the compound `Cc1cc(-c2n[nH]c3cc4c(cc23)CN([C@H]2CCN(CC(F)(F)F)C2)C(=O)N4)cc(C)n1` [Example 310], the pIC50 is 6.00 to 6.60. For `Cc1cc(-c2n[nH]c3cc4[nH]c(=O)c(C(C)c5ccc(F)cc5F)cc4cc23)ccn1` (stereo not shown) [Example 312] the value was at least 6.60; for `Cc1cc(-c2n[nH]c3cc4c(cc23)CN([C@@H]2CCC[C@@H](NCc3ccccc3)C2)C(=O)N4)ccn1` [Example 313], 6.00 to 6.60; for `Cc1cc(-c2n[nH]c3cc4c(cc23)CN([C@@H]2CN(CC(F)(F)F)C[C@H]2C(C)(C)C)C(=O)N4)ccn1` [Example 329], under 6.00.

Turning to `CC(c1ccccc1)c1cc2cc3c(-c4cnc(N)nc4)n[nH]c3cc2[nH]c1=O` (stereo not shown) [Example 334], the pIC50 is at least 6.60.

As to `Cc1ncccc1-c1n[nH]c2cc3[nH]c(=O)c(C(C)c4ccccc4)cc3cc12` (stereo not shown) [Example 335], the pIC50 is under 6.00.

With `Cc1cc(-c2n[nH]c3cc4[nH]c(=O)c(C5CCCN(Cc6cc(F)ccc6F)C5)cc4cc23)ccn1` (stereo not shown) [Example 336], the pIC50 was at least 6.60. As to `O=C1Nc2cc3[nH]nc(-c4ccnnc4)c3cc2CN1[C@@H]1CN(CC(F)(F)F)C[C@H]1c1ccccc1` [Example 340], the pIC50 is at least 6.60. Regarding `O=C1Nc2cc3[nH]nc(-c4cccnc4)c3cc2CN1[C@@H]1CN(CC(F)(F)F)C[C@H]1c1ccccc1` [Example 341], the pIC50 is at least 6.60. The figure for `O=C1Nc2cc3[nH]nc(-c4ccncc4)c3cc2CN1[C@@H]1CN(CC(F)(F)F)C[C@H]1c1ccccc1` [Example 342] is at least 6.60; for `Cc1cnccc1-c1n[nH]c2cc3[nH]c(=O)c(C(C)c4ccccc4)cc3cc12` (stereo not shown) [Example 343] it is under 6.00; for `CC(c1ccccc1)c1cc2cc3c(-c4ccnc(N)c4)n[nH]c3cc2[nH]c1=O` (stereo not shown) [Example 344] it is at least 6.60.

Take `CC(c1ccccc1)c1cc2cc3c(N4CCOCC4)n[nH]c3cc2[nH]c1=O` (stereo not shown) [Example 345]: the pIC50 is at least 6.60. The figure for `Cn1cc(-c2n[nH]c3cc4c(cc23)CN([C@@H]2CN(CC(F)(F)F)C[C@H]2c2ccccc2)C(=O)N4)ccc1=O` [Example 346] is at least 6.60. As for `CC(c1ccccc1)c1cc2cc3c(-c4ccc(=O)n(C)c4)n[nH]c3cc2[nH]c1=O` (stereo not shown) [Example 347], the pIC50 was at least 6.60. The figure for `COc1ncc(-c2n[nH]c3cc4c(cc23)CN([C@@H]2CN(CC(F)(F)F)C[C@H]2c2ccccc2)C(=O)N4)cn1` [Example 348] is at least 6.60; for `Cc1ncc(-c2n[nH]c3cc4c(cc23)CN([C@@H]2CN(CC(F)(F)F)C[C@H]2c2ccccc2)C(=O)N4)cn1` [Example 349] it is at least 6.60; for `Cn1nccc1-c1n[nH]c2cc3c(cc12)CN([C@@H]1CN(CC(F)(F)F)C[C@H]1c1ccccc1)C(=O)N3` [Example 350] it is under 6.00.

As to `Nc1ncc(-c2n[nH]c3cc4c(cc23)CN([C@@H]2CN(CC(F)(F)F)C[C@H]2c2ccccc2)C(=O)N4)cn1` [Example 351], the pIC50 is 6.00 to 6.60.
